# Source: patent US9079852B2, “NMDA receptor antagonists for neuroprotection” (Emory University, priority 2007, dated 2015)
# Columns and labels:
# [1] = target: rat alpha-1 adrenergic receptor; assay: alpha-1 adrenergic receptor binding by displacement of 3[H]-prazosin in rat brain membranes; details: 3[H]-prazosin displacement, read-out: α1 IC50
# Procedure: Binding to the rat alpha-1 adrenergic receptor in rat brain membranes was determined by displacement of ^3[H]-prazosin (P. Greengrass and R. Bremner; Binding characteristics of 3H-prazosin to rat brain a-adrenergic receptors. Eur. J. Pharmacol. 1979, 55: 323-326). Compounds were incubated at 0.3 or 3 μM final concentration, in duplicate, and the amount of displaced ^3[H]-prazosin determined by liquid scintillation spectroscopy.
# Binding IC50 values were determined from displacement curves (four-six concentrations, each concentration in duplicate) fit by a non-linear, least squares, regression analysis using MathIQ (ID Business Solutions Ltd., UK). The binding Ki's were determined from the IC50 according to the method of Cheng and Prusoff (Y. Cheng and W. H. Prusoff; Relationship between the inhibition constant (K1) and the concentration of inhibitor which causes 50 percent inhibition (IC50) of an enzymatic reaction. Biochem. Pharmacol. 1973, 22: 3099-3108).
# [2] = Plasma half-life / plasma pharmacokinetics (Table G); type: in vivo; details: rat
# Procedure: (§1) Animals were fasted overnight prior to dose administration and food returned to the animals two hours after dosing. Following IV dosing, blood samples (ca 200 μL) were collected into separate tubes containing anticoagulant (K-EDTA) via the orbital plexus at various times post administration. Plasma samples were prepared immediately after collection by centrifugation for ten minutes using a tabletop centrifuge, and stored at −80° C. Brain tissue was weighed, homogenized on ice in 50 mM phosphate buffer (2 ml per brain) and the homogenate stored at −80° C. Plasma and brain homogenate samples were extracted by the addition of 5 volumes of cold acetonitrile, mixed well by vortexing and centrifuged at 4000 rpm for 15 minutes. The supernatant fractions were analyzed by LC-MS/MS operating in multiple reaction monitoring mode (MRM). The amount of parent compound in each sample was calculated by comparing the response of the analyte in the sample to that of a standard curve.
# [3] = Brain exposure / brain penetration (Table H); type: in vivo, rat; details: for BBB Pene Classification: classes High/Moderate/Low, key not given
# Procedure: as §1, with “Rats (n=3 per dose) were administered compounds at a doses of 1-4 mg/kg in a single bolus i.v. infusion (2 ml/kg body weight) via the tail vein formulated in 2% dimethyl acetamide/98% 2-hydroxy-propyl cyclodextrin (5%). Animals” for “Animals”
# [4] = Oral absorption (Table I); type: in vivo; details: rat, plasma, read-out: p.o. t½ hr (converted)
# [5] = iv, 3 mg/kg, 3 MPK i.v., read-out: PK-i.v. t½ (converted)
# [6] = iv, 1 mg/kg, 1 MPK i.v., read-out: PK-i.v. t½ (converted)
compound,measurement,setting,value
CS(=O)(=O)Nc1ccc(OC[C@@H](O)CN2CCN(c3ccc(Cl)cc3)CC2)cc1,IC50,[1],350 nM
O[C@H](COc1ccc2[nH]ncc2c1)CN1CCN(c2ccc(Cl)cc2)CC1,IC50,[1],~300 nM
O=c1ccc2cc(OC[C@@H](O)CN3CCN(c4ccc(Cl)cc4)CC3)ccc2[nH]1,IC50,[1],~350 nM
O=c1[nH]c2ccc(OC[C@@H](O)CN3CCN(c4ccc(Cl)cc4)CC3)cc2[nH]1,IC50,[1],~350 nM
O=C1Cc2cc(OC[C@@H](O)CN3CCN(c4ccc(Cl)cc4)CC3)ccc2N1,IC50,[1],~100 nM
O[C@H](COc1ccc2[nH]c(=S)[nH]c2c1)CN1CCN(c2ccc(Cl)cc2)CC1,IC50,[1],~150 nM
O=C1CCc2cc(OC[C@@H](O)CN3CCN(c4ccc(Cl)cc4)CC3)ccc2N1,IC50,[1],~100 nM
CS(=O)(=O)Nc1ccc(OC[C@@H](O)CN2CCN(c3ccc(Cl)c(Cl)c3)CC2)cc1,half-life,[2]; [5],2.6 h
O=C(COc1ccc2[nH]c(=O)[nH]c2c1)N1CCN(c2ccc(Cl)c(Cl)c2)CC1,half-life,[2]; [6],1.84 h
Oc1ccc(OC[C@@H](O)CN2CCN(c3ccc(Cl)cc3)CC2)cc1 [drawing 743],IC50,[1],720 nM
O=c1[nH]c2ccc(OC[C@@H](O)CN3CCN(c4ccc(Cl)cc4)CC3)cc2o1 [drawing 744],IC50,[1],620 nM
NC(=O)Nc1ccc(OC[C@@H](O)CN2CCN(c3ccc(Cl)cc3)CC2)cc1 [drawing 746],IC50,[1],340 nM
NC(=O)Nc1ccc(OC[C@@H](O)CN2CCN(c3ccc(Cl)cc3)CC2)cc1 [drawing 754],half-life,[2]; [6],2.7 h
O=c1[nH]c2ccc(OC[C@@H](O)CN3CCN(c4ccc(F)c(F)c4)CC3)cc2[nH]1 [drawing 755],half-life,[2]; [6],2.4 h
CS(=O)(=O)Nc1ccc(OC[C@@H](O)CN2CCN(c3ccc(F)c(F)c3)CC2)cc1 [drawing 757],half-life,"[2]; ip, 60 mg/kg, 60 MPK i.p., read-out: PK t½ (hr) i.p.",> 2 h
Cc1ccc(N2CCN(C[C@H](O)COc3ccc4c(c3)CCC(=O)N4)CC2)cc1 [drawing 758],half-life,[2]; [6],0.8 h
Oc1ccc(OC[C@@H](O)CN2CCN(c3ccc(Cl)cc3)CC2)cc1 [drawing 759],half-life,[2]; [6],0.6 h
O=c1[nH]c2ccc(OC[C@@H](O)CN3CCN(c4ccc(Cl)cc4)CC3)cc2o1 [drawing 760],half-life,[2]; [6],0.6 h
Cc1ccc(N2CCN(C[C@H](O)COc3ccc4[nH]c(=O)oc4c3)CC2)cc1 [drawing 761],half-life,[2]; [6],0.6 h
NC(=O)Nc1ccc(OC[C@@H](O)CN2CCN(c3ccc(Cl)cc3)C2=O)cc1 [drawing 762],half-life,[2]; [6],1.14 h
O=C1N(C[C@H](O)COc2ccc(O)cc2)CCN1c1ccc(Cl)cc1 [drawing 763],half-life,[2]; [5],≤ 0.8 h
O=C(COc1ccc2[nH]c(=O)oc2c1)N1CCN(c2ccc(Cl)c(Cl)c2)CC1 [drawing 765],half-life,"[2]; ip, 10 mg/kg, 10 MPK i.p., read-out: PK t½ (hr) i.p.",~0.83 h
O=c1[nH]c2ccc(OC[C@@H](O)CSc3nc4cc(Cl)c(Cl)cc4[nH]3)cc2o1 [drawing 766],half-life,[2]; [5],≤ 0.8 h
Oc1ccc(OC[C@@H](O)CSc2nc3cc(Cl)c(Cl)cc3[nH]2)cc1 [drawing 767],half-life,[2]; [5],~0.5 h
Oc1ccc(OC[C@@H](O)CN2CCN(c3ccc(Cl)cc3)CC2)cc1 [drawing 768],BBB Pene Classification,[3],High
Cc1ccc(N2CCN(C[C@H](O)COc3ccc4[nH]c(=O)oc4c3)CC2)cc1 [drawing 769],BBB Pene Classification,[3],Moderate
CS(=O)(=O)Nc1ccc(OC[C@@H](O)CN2CCN(c3ccc(F)c(F)c3)CC2)cc1 [drawing 770],BBB Pene Classification,[3],Moderate
NC(=O)Nc1ccc(OC[C@@H](O)CN2CCN(c3ccc(Cl)cc3)CC2)cc1 [drawing 771],BBB Pene Classification,[3],Low
O=C1N(C[C@H](O)COc2ccc(O)cc2)CCN1c1ccc(Cl)cc1 [drawing 772],BBB Pene Classification,[3],High
NC(=O)Nc1ccc(OC[C@@H](O)CN2CCN(c3ccc(Cl)cc3)C2=O)cc1 [drawing 773],RATIO: Brain:plasma (Direct),"[3]; 1 MPK i.v., no time point printed",Below Detection limit (~0)
same,BBB Pene Classification,[3],Low
O=C(COc1ccc2[nH]c(=O)oc2c1)N1CCN(c2ccc(Cl)c(Cl)c2)CC1 [drawing 774],BBB Pene Classification,[3],Moderate
O=C(COc1ccc2[nH]c(=O)oc2c1)N1CCN(c2ccc(Cl)c(Cl)c2)CC1 [drawing 775],Kp at 15 min,"[3]; rat, brain/plasma, iv, 1 mg/kg, 1 MPK i.v., 15 m, read-out: RATIO: Brain:plasma (Direct), 15 m",0.04
same,Kp at 30 min,"[3]; rat, brain/plasma, iv, 1 mg/kg, 1 MPK i.v., 30 m, read-out: RATIO: Brain:plasma (Direct), 30 m",0.06
same,Kp at 1 h,"[3]; rat, brain/plasma, iv, 1 mg/kg, 1 MPK i.v., 1 hr, read-out: RATIO: Brain:plasma (Direct), 1 hr",0.07
same,Kp at 3 h,"[3]; rat, brain/plasma, iv, 1 mg/kg, 1 MPK i.v., 3 hr, read-out: RATIO: Brain:plasma (Direct), 3 hr",0.1
same,Kp,"[3]; rat, brain/plasma, iv, 1 mg/kg, 1 MPK i.v., avg, read-out: RATIO: Brain:plasma (Direct), avg",0.07
Oc1ccc(OC[C@@H](O)CSc2nc3cc(Cl)c(Cl)cc3[nH]2)cc1 [drawing 776],"RATIO: Brain:plasma (Direct), 2 hr","[3]; 3 MPK i.v., 2 hr",BLQ
same,BBB Pene Classification,[3],High
O=c1[nH]c2ccc(OC[C@@H](O)CSc3nc4cc(Cl)c(Cl)cc4[nH]3)cc2o1 [drawing 777],"RATIO: Brain:plasma (Direct), 30 m","[3]; 3 MPK i.v., 30 m","BLQ (avg); BLQ (30 m), BLQ (1 hr),"
same,"RATIO: Brain:plasma (Direct), 1 hr","[3]; 3 MPK i.v., 1 hr","BLQ (avg); BLQ (30 m), BLQ (1 hr),"
same,"RATIO: Brain:plasma (Direct), avg","[3]; 3 MPK i.v., avg","BLQ (avg); BLQ (30 m), BLQ (1 hr),"
same,BBB Pene Classification,[3],Moderate
NC(=O)Nc1ccc(OC[C@@H](O)CN2CCN(c3ccc(Cl)cc3)CC2)cc1 [drawing 778],half-life,"[4]; 10 mg/kg, 10 MPK, 0-8 hr p.o.",388 min
O=c1[nH]c2ccc(OC[C@@H](O)CN3CCN(c4ccc(F)c(F)c4)CC3)cc2[nH]1 [drawing 779],half-life,"[4]; 5 mg/kg, 5 MPK, 0-6 hr p.o.",182 min
Cc1ccc(N2CCN(C[C@H](O)COc3ccc4c(c3)CCC(=O)N4)CC2)cc1 [drawing 780],half-life,"[4]; 5 mg/kg, 5 MPK, 0-6 hr p.o.",51 min
